Structures can show the parent of a compound that is named as a salt.
Tested on: ICR mice
Test: Glucose tolerance in fasted ICR mice: serum glucose by glucose-oxidase method after intraperitoneal glucose load
Format: in vivo
Settings: dose 100 mg/kg; for 0.5 h blood sugar: serum glucose 0.5 h after modeling (2 g/kg glucose i.p. 2 h after administration; 1.5 h for diamicron); for 1 h blood sugar: serum glucose 1 h after modeling (2 g/kg glucose i.p. 2 h after administration; 1.5 h for diamicron); for 2 h blood sugar: serum glucose 2 h after modeling (2 g/kg glucose i.p. 2 h after administration; 1.5 h for diamicron); for 3 h blood sugar: serum glucose 3 h after modeling (2 g/kg glucose i.p. 2 h after administration; 1.5 h for diamicron); for 4 h blood sugar: serum glucose 4 h after modeling (2 g/kg glucose i.p. 2 h after administration; 1.5 h for diamicron)
Protocol: 1% sodium carboxymethyl cellulose is used to formulate the sample to a suspension with the concentration of 5 mg/mL, the administration amount is 0.4 mL/20 g body weight, which is corresponding to 100 mg/kg dosage.
The health ICR mice with 20-24 g of body weight fulfill the primary standard, and the male and female of them are in equal. The animals are fasted for 16 hours, and 2 g/kg of glucose-saline solution is injected intraperitoneally at 2 h after administration (glucose is injected at 1.5 h after administration of diamicron). The blood is regularly collected from the post-glomus venous plexus in mice with capillary at 0.5 h, 1 h, 2 h, 3 h, and 4 h after modeling, centrifuged to separate the blood serum, and the content of serum glucose is measured at each of the time-point by glucose-oxidase method.

O=C(CNCc1ccccc1)Nc1nccs1 [Compound I-1, 2-{2-[(benzyl)amino]acetyl}amino thiazole]
0.5 h blood sugar: 266.4 ± 56.9 mg/dL
1 h blood sugar: 182.3 ± 57.6 mg/dL
2 h blood sugar: 88.2 ± 17.6 mg/dL
3 h blood sugar: 60.0 ± 15.6 mg/dL
4 h blood sugar: 52.3 ± 28.1 mg/dL

O=C(CNCc1ccccc1Cl)Nc1nc(Br)cs1 [Compound I-2, 4-bromo-2-{2-[(2-chlorobenzyl)amino]acetyl}amino thiazole]
0.5 h blood sugar: 199.2 ± 37.6 mg/dL
1 h blood sugar: 153.3 ± 62.7 mg/dL
2 h blood sugar: 93.3 ± 48.7 mg/dL
3 h blood sugar: 58.2 ± 29.0 mg/dL
4 h blood sugar: 60.0 ± 18.2 mg/dL

Cc1csc(NC(=O)CNCc2cccs2)n1 [Compound I-6, 4-methyl-2-{2-[(thienyl-2-methyl)amino]acetyl}amino thiazole]
0.5 h blood sugar: 240.1 ± 41.1 mg/dL
1 h blood sugar: 186.8 ± 45.9 mg/dL
2 h blood sugar: 113.6 ± 30.9 mg/dL
3 h blood sugar: 76.6 ± 48.4 mg/dL
4 h blood sugar: 88.0 ± 20.1 mg/dL

O=C(CNCc1sccc1Br)Nc1nc(Br)cs1 [Compound I-7, 4-bromo-2-{2-[(3-bromothienyl-2-methyl)amino]acetyl}amino thiazole]
0.5 h blood sugar: 186.0 ± 67.8 mg/dL
1 h blood sugar: 130.2 ± 37.7 mg/dL
2 h blood sugar: 100.9 ± 29.6 mg/dL
3 h blood sugar: 83.3 ± 91.8 mg/dL
4 h blood sugar: 72.1 ± 29.7 mg/dL

COC(=O)c1csc(NC(=O)CNCc2scc(C)c2Br)n1 [Compound I-8, 2-{2-[(3-bromo-4-methylthienyl-2-methyl)amino]acetyl}amino thiazole-4-methyl formate]
0.5 h blood sugar: 162.5 ± 20.6 mg/dL
1 h blood sugar: 102.0 ± 30.5 mg/dL
2 h blood sugar: 98.7 ± 20.5 mg/dL
3 h blood sugar: 62.5 ± 15.3 mg/dL
4 h blood sugar: 50.6 ± 18.9 mg/dL

Cl.O=C(CNCc1ccccc1Cl)Nc1nc(Br)cs1 [Compound I-13, 4-bromo-2-{2-[(2-chlorobenzyl)amino]acetyl}amino thiazole hydrochloride]
0.5 h blood sugar: 195.6 ± 78.1 mg/dL
1 h blood sugar: 166.5 ± 44.2 mg/dL
2 h blood sugar: 99.3 ± 20.9 mg/dL
3 h blood sugar: 68.1 ± 21.5 mg/dL
4 h blood sugar: 59.2 ± 18.3 mg/dL

Cc1csc(NC(=O)CNCc2cccs2)n1.Cl [Compound I-14, 4-methyl-2-{2-[(thienyl-2-methyl)amino]acetyl}amino thiazole hydrochloride]
0.5 h blood sugar: 233.2 ± 18.1 mg/dL
1 h blood sugar: 176.2 ± 25.2 mg/dL
2 h blood sugar: 95.4 ± 46.9 mg/dL
3 h blood sugar: 65.3 ± 20.1 mg/dL
4 h blood sugar: 70.1 ± 15.3 mg/dL

Cl.O=C(CNCc1occc1[N+](=O)[O-])Nc1nc(Br)cs1 [Compound I-15, 4-bromo-2-{2-[(3-nitrylfuranyl-2-methyl)amino]acetyl}amino thiazole hydrochloride]
0.5 h blood sugar: 193.6 ± 76.4 mg/dL
1 h blood sugar: 161.5 ± 42.6 mg/dL
2 h blood sugar: 91.3 ± 20.0 mg/dL
3 h blood sugar: 64.1 ± 20.2 mg/dL
4 h blood sugar: 55.1 ± 14.2 mg/dL

Cc1ccc(S(=O)(=O)NC(=O)NN2CC3CCCC3C2)cc1 (stereo not drawn) [diamicron, reference compound]
0.5 h blood sugar: 211.0 ± 91.3 mg/dL
1 h blood sugar: 140.3 ± 74.4 mg/dL
2 h blood sugar: 103.4 ± 31.7 mg/dL
3 h blood sugar: 77.2 ± 25.8 mg/dL
4 h blood sugar: 62.3 ± 22.3 mg/dL

— patent US20110281922A1, “AMIDE THIAZOLE DERIVATIVE, PREPARATION METHOD AND USES THEREOF” (TIANJIN INSTITUTE OF PHARMACEUTICAL RESEARCH, priority 2008, published 2011)
